Positions of bridges follow the written chain, without caps; N, C: chain ends. Residues, ends and D or L forms follow the SMILES beside them. *: point of attachment. Boc = CC(C)(C)OC(=O)*

The Ki is the dissociation constant of the complex between target and ligand, obtained from inhibition or displacement.

Assay [1] addresses T1, human kidney renin (Homo sapiens, UniProt P00797).
T1 construct: human kidney renin purified as described in Bangham; from tissue; host or cells: human kidney
T1 sequence (P00797 67-406): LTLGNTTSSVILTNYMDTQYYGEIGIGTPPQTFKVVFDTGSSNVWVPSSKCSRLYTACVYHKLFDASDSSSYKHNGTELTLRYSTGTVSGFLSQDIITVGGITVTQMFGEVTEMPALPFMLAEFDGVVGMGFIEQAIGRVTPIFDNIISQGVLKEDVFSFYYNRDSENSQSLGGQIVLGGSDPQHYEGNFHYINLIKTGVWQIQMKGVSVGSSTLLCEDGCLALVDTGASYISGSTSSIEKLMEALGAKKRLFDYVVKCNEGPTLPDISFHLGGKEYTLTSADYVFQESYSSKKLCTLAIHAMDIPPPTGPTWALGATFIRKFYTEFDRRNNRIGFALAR
Kind of assay: Human renin inhibition. It counts as biochemical. To be noted: purified human kidney renin; read-out: KI (dissociation constant of the inhibited enzyme-inhibitor complex). On the procedure: An assay was carried out in order to determine the inhibitory potency of the peptides of the present invention. The assay measured the inhibition of human kidney renin purified as described in Bangham, D. R., Robertson, I., Robinson, J. I. S., Robinson, C. J., and Tree, M., Clinical Science and Molecular Medicine, 48 (Supp. 2): 136s-159s (1975), and further purified by affinity chromatography on pepstatin-aminohexyl-Sepharase as described in Poe, M., Wu., J. K., Florance, J. R., Radkey, J. A., Bennett, C. D., and Hoagsteen, K., J. Biol. Chem. (1982, in press). The assay was also in accordance with Poe et al. cited above. Results are expressed as KI values, which refer to the dissociation constant of the inhibited enzyme-inhibitor complex. This KI value was obtained as described above. […]

Assay [2] concerns hog kidney renin. Kind of assay: Hog renin inhibition. It counts as biochemical. To be noted: pH 7.3, read-out: I50 (concentration of peptide inhibitor necessary to produce 50% inhibition of renin activity). On the procedure:
An assay was carried out in order to determine the inhibitory potency of the peptides of the present invention. The assay measured the inhibition of hog kidney renin, and was in accordance with the procedure described in Rich et al., J. Med. Chem. 23:27, 1980, except that a pH of 7.3 was used. The results of the assay, illustrated in the table below, are expressed as I50 values, which refers to the concentration of peptide inhibitor necessary to produce 50% inhibition of renin activity. This I50 value is obtained typically by plotting data from four inhibitor concentrations.

Assay [3] has as its system nephrectomized rats. To be noted: after the injection of hog renin into nephrectomized rats; Gross et al. 1971; cited from earlier work.

On to `CC(C)[C@@H]1NC(=O)[C@H](Cc2ccccc2)NC(=O)[C@H](Cc2ccccc2)NC(=O)[C@@H](NC(=O)[C@H](Cc2ccccc2)NC(=O)[C@@H]2CCCN2C(=O)[C@H](Cc2c[nH]cn2)NC(=O)[C@@H]2CCCN2)CCCCNC(=O)[C@H](Cc2ccccc2)NC1=O` (H-PHPFKFFVF; lactam 5-C), for which the Ki in assay [1] was 33 µM. Consider `CC(C)C[C@@H]1NC(=O)[C@@H](NC(=O)[C@H](Cc2ccccc2)NC(=O)[C@@H]2CCCN2C(=O)[C@H](Cc2c[nH]cn2)NC(=O)[C@@H]2CCCN2C(=O)OC(C)(C)C)CCCCNC(=O)[C@H](Cc2ccccc2)NC(=O)[C@H](C(C)C)NC(=O)[C@H](CC(C)C)NC1=O` [drawing 67] (Boc-PHPFKLLVF; lactam 5-C), for which the IC50 in assay [2] came out at 1000 µM. `CC(C)C[C@@H]1NC(=O)[C@@H](NC(=O)[C@H](Cc2ccccc2)NC(=O)[C@@H]2CCCN2C(=O)[C@H](Cc2c[nH]cn2)NC(=O)[C@@H]2CCCN2C(=O)OC(C)(C)C)CCCCNC(=O)[C@H](Cc2ccccc2)NC(=O)[C@H](C(C)C)NC(=O)[C@H](CC(C)C)NC1=O` [drawing 69] (Boc-PHPFKLLVF; lactam 5-C): the Ki in assay [1] amounted to 6.4 µM.

For the compound Pepstatin, the “blood pressure in vivo” value in assay [3] was “reduce blood pressure”.

Values taken from patent US4743584A, “C-terminal amide cyclic renin inhibitors containing peptide isosteres” (Merck & Co., Inc., priority 1986, dated 1988).
